Measured values published in patent US6713048B2, “Δ9 tetrahydrocannabinol (Δ9 THC) solution metered dose inhalers and methods of use” (Virginia Commonwealth University, priority 1998, dated 2004).

Columns and labels:
[1] = tested on: AIDS-associated anorexia and cachexia; settings: oral 2.5 mg THC twice daily; 139 patients; 42 days; cited from earlier work
[2] = tested on: Pain due to advanced cancer; settings: oral 5, 10, 15 or 20 mg THC; 10 patients; cited from earlier work
[3] = tested on: Nausea and emesis due to Cancer chemotherapy; settings: oral 10 mg/m^2 THC; 84 patients; cited from earlier work
Male ICR mice = assay: Antinociception, tail-flick test; format: in vivo; settings: for % MPE (mean ± S.E.): 20 min after treatment
Experimental: Male ICR mice, weighing approximately 30 g, obtained from Harlan Laboratories (Indianapolis, Ind.) were provided a light cycle of approximately 6 a.m. to 6 p.m., and the temperature remained approximately 23° C. The mice were placed in the lab and allowed to accommodate to the surroundings the evening prior to testing. Animals were allowed food (Harlan Teklab, Madison, Wis.) and water ad libitum.
The exposure chamber was a modified, inverted, 1-liter separation funnel, housed under a fume hood, which allowed four mice to be simultaneously exposed to the aerosol. Air was drawn through the chamber at a rate of approximately 60 ml/minute and filtered through glass wool (Corning Inc., Corning, N.Y.) and charcoal traps (SKC Inc., Eighty Four, Pa.) upon exiting the exposure chamber. Each actuation of Δ^9-THC or vehicle was delivered once per 5 s and the entire exposure period was 10 min. Mice were exposed to 20, 40 or 60 actuations of aerosolized Δ^9-THC or 60 actuations of vehicle.
Mice were placed in separate clear chambers (16.5 cm×25.5 cm×11.5 cm high) and assessed for hypomotility using a Digiscan Animal Activity Monitor (Omnitech Electronics Inc., Columbus, Ohio) in which the total number of photocell-light beam interruptions was counted. Antinociception was assessed in the tail-flick test (D'Amour, F. E., Smith, D. L., A method for determining loss of pain sensation, J Pharm Exp Ther, 72:74-79 (1941)) with heat intensity adjusted to give baseline latencies ranging from 2.0-4.0 seconds. A cut-off time of 10 seconds was used to limit tissue damage. Percent maximum possible effect (%MPE) was determined according to the following formula:
%MPE=[(test latency-baseline latency)/(cut-off-baseline latency)]*100
A ring-test procedure was used to assess catalepsy. The percent of time during a five minute observation period that mice remained motionless, except for movements related to respiration, while stationed on a 5.7 cm diameter ring stand 23 cm above the laboratory bench, was assessed. Body temperature was assessed by inserting a thermometer probe (Traceable Digital, Control Co., Friendswood, Tex.) 2.5 cm into the rectum. Subjects were assessed for baseline tail-flick latency and rectal temperature prior to drug or vehicle administration. […] Locomotor activity, tail-flick latency, catalepsy, and hypothermia were assessed 5, 20, 40, and 60 minutes, respectively, after aerosol exposure. An additional group of animals was given an i.v. injection of Δ^9-THC (0.3, 1, 3, or 10 mg/kg) or vehicle into a lateral tail vein and assessed in the tail-flick test 20 minutes later. All injections were given in a volume of 0.1 ml per 10 g animal weight.
The statistical analysis of the data was as follows. Data are represented by means±standard error (s.e.). Statistical analysis of the data was performed using Student t-tests (for the physiochemical comparisons of the aerosol), or ANOVA (for pharmacological studies), with significance set at p<0.05. Post hoc tests for significant ANOVAs included either Dunnett's test or Tukey/Kramer post-hoc analysis. […] A sample size of 6-8 mice was used in each group.

What does the source list for `CCCCCc1cc(O)c2c(c1)OC(C)(C)[C@@H]1CCC(C)=C[C@@H]21` (relative stereo) [Δ^9 THC, (6aR-trans)-6a,7,8,10a-tetrahydro-6,6,9-trimethyl-3-pentyl-6H-dibenzo[b,d]-pyran-1-ol]?
appetite increase over baseline [1]: Appetite increased 38%; nausea [1]: THC also decreased; weight change between THC and placebo groups [1]: nausea. No significant; appetite [2]: appetite stimulation,; mood [2]: elevated mood; pain [2]: Pain relief; antiemetic efficacy compared with prochloperazine [3]: THC more effective than; ED50 (Male ICR mice; Mus musculus, intravenous, read-out: antinociceptive ED50 (95% C.L.)): 2.4 mg/kg; antinociceptive ED50 (95% C.L.) (Male ICR mice; inhalation): 30 (20-44) actuations; % MPE (mean ± S.E.) (Male ICR mice; inhalation, 20 actuations): 37 ± 11 % MPE; % MPE (mean ± S.E.) (Male ICR mice; inhalation, 40 actuations): 58 ± 14 % MPE; % MPE (mean ± S.E.) (Male ICR mice; inhalation, 60 actuations): 78 ± 11 % MPE; % MPE (mean ± S.E.) (Male ICR mice; intravenous, 1 mg/kg): 31 ± 8 % MPE; % MPE (mean ± S.E.) (Male ICR mice; intravenous, 3 mg/kg): 70 ± 14 % MPE; % MPE (mean ± S.E.) (Male ICR mice; intravenous, 10 mg/kg): 67 ± 11 % MPE
